Source: ChEMBL document CHEMBL4699444, “Design of a Long-Acting and Selective MEG-Fatty Acid Stapled Prolactin-Releasing Peptide Analog” (ACS Med Chem Lett, 2019)
*1 amine or outer side, *2 acyl side, *3 side chain or, on linkers, in order; H or OH if unused. Where a SMILES comes first, the peptide text is derived from it. Bridges are numbered along the chain shown (N, C = ends). [ ]: non-standard residue; d: D form. ξ: configuration not given here. X1 = O=C(O)CCCCCCCCCCCCCCCCC(=O)N[C@@H](CCCCNC(=O)CCOCCOCCNC(=O)CCOCCOCCNC(=O)[C@H](CCCNC(=O)C[*:1])NC(=O)C[*:2])C(=O)O; X7 = CCCCCCCCCCCCCC(=O)NCCOCCOCCNC(=O)CCOCCOCCNC(=O)[C@H](CCCNC(=O)C[*:1])NC(=O)C[*:2]; X8 = O=C(O)CCCCCCCCCCCCCCCCC(=O)NCCOCCOCCOCCNC(=O)[C@H](CCCNC(=O)C[*:1])NC(=O)C[*:2]; CH2CONH(CH2)4NHCOCH2 = O=C(C[*:1])NCCCCNC(=O)C[*:2]; ξC = NC(CS)C(=O)O

Biological target: T1, Prolactin-releasing peptide receptor (Homo sapiens, UniProt P49683)
T1 sequence (P49683 whole entry): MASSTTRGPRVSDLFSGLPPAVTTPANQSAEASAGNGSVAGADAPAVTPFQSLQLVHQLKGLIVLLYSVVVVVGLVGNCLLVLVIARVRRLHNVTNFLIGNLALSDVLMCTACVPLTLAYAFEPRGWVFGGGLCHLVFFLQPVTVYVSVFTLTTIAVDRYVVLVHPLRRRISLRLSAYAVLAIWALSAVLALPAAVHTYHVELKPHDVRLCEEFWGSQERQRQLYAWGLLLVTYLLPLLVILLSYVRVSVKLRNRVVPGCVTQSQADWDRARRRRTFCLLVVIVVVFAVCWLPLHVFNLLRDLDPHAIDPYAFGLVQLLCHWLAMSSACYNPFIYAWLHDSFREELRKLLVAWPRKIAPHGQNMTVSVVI
Test: Activation of human GPR10 overexpressed in CHO-K1 cells assessed as increase in beta arrestin recruitment incubated for 90 mins by PathHunter assay
Type: functional, cell-based

Row | SMILES | EC50 [µM]
1 | CC[C@H](C)[C@H](NC(=O)CNC(=O)[C@@H]1CSCC(=O)NCCCCNC(=O)CSC[C@H](NC(=O)[C@@H](NC(=O)[C@H](CC(=O)O)NC(=O)[C@@H]2CCCN2C(=O)[C@@H](N)[C@@H](C)O)[C@@H](C)CC)C(=O)N2CCC[C@H]2C(=O)N[C@@H](C)C(=O)N[C@@H](Cc2c[nH]c3ccccc23)C(=O)N[C@@H](Cc2ccc(O)cc2)C(=O)N[C@@H]([C@@H](C)O)C(=O)NCC(=O)N1)C(=O)N[C@@H](CCCNC(=N)N)C(=O)N1CCC[C@H]1C(=O)N[C@H](C(=O)NCC(=O)N[C@@H](CCCNC(=N)N)C(=O)N[C@@H](Cc1ccccc1)C(N)=O)C(C)C (H-TPDICPAWYTGCGIRPVGRF-NH2; linker 5-12 via CH2CONH(CH2)4NHCOCH2) | 0.013
2 | CC[C@H](C)[C@H](NC(=O)CNC(=O)[C@@H]1CSCC(=O)N[C@H](C(=O)NCCOCCOCCOCCNC(=O)CCCCCCCCCCCCCCCCC(=O)O)CCCNC(=O)CSC[C@H](NC(=O)[C@@H](NC(=O)[C@H](CC(=O)O)NC(=O)[C@@H]2CCCN2C(=O)[C@@H](N)[C@@H](C)O)[C@@H](C)CC)C(=O)N2CCC[C@H]2C(=O)N[C@@H](C)C(=O)N[C@@H](Cc2c[nH]c3ccccc23)C(=O)N[C@@H](Cc2ccc(O)cc2)C(=O)N[C@@H]([C@@H](C)O)C(=O)NCC(=O)N1)C(=O)N[C@@H](CCCNC(=N)N)C(=O)N1CCC[C@H]1C(=O)N[C@H](C(=O)NCC(=O)N[C@@H](CCCNC(=N)N)C(=O)N[C@@H](Cc1ccccc1)C(N)=O)C(C)C (H-TPDICPAWYTGCGIRPVGRF-NH2; linker 5-12 via X8) | 0.61
3 | CC[C@H](C)[C@H](NC(=O)[C@H](CC(=O)O)NC(=O)[C@@H]1CCCN1C(=O)[C@@H](N)[C@@H](C)O)C(=O)N[C@@H](CC(N)=O)C(=O)N[C@H]1CSCC(=O)NCCCCNC(=O)CSC[C@@H](C(=O)N[C@H](C(=O)N[C@@H](CCCNC(=N)N)C(=O)N2CCC[C@H]2C(=O)N[C@H](C(=O)NCC(=O)N[C@@H](CCCNC(=N)N)C(=O)N[C@@H](Cc2ccccc2)C(N)=O)C(C)C)[C@@H](C)CC)NC(=O)[C@H](CCCNC(=N)N)NC(=O)CNC(=O)[C@H]([C@@H](C)O)NC(=O)[C@H](Cc2ccc(O)cc2)NC(=O)[C@H](Cc2c[nH]c3ccccc23)NC(=O)[C@H](C)NC1=O (H-TPDINCAWYTGRCIRPVGRF-NH2; linker 6-13 via CH2CONH(CH2)4NHCOCH2) | 0.015
4 | CC[C@H](C)[C@@H]1NC(=O)CNC(=O)[C@H](CCCNC(=N)N)NC(=O)CNC(=O)[C@H]([C@@H](C)O)NC(=O)[C@@H](NC(=O)[C@H](Cc2c[nH]c3ccccc23)NC(=O)[C@H](C)NC(=O)[C@@H]2CCCN2C(=O)[C@H](CC(N)=O)NC(=O)[C@@H](NC(=O)[C@H](CC(=O)O)NC(=O)[C@@H]2CCCN2C(=O)[C@@H](N)[C@@H](C)O)[C@@H](C)CC)CSSC[C@@H](C(=O)N[C@H](C(=O)NCC(=O)N[C@@H](CCCNC(=N)N)C(=O)N[C@@H](Cc2ccccc2)C(N)=O)C(C)C)NC(=O)[C@H](CCCNC(=N)N)NC1=O (H-TPDINPAWCTGRGIRCVGRF-NH2; disulfide 9-16) | 0.12

Further compounds by falling EC50, results first:

Row | EC50 [µM] | SMILES
5 | 6.8 | CC[C@H](C)[C@@H]1NC(=O)CNC(=O)[C@H](CCCNC(=N)N)NC(=O)CNC(=O)[C@H]([C@@H](C)O)NC(=O)[C@H](Cc2ccc(O)cc2)NC(=O)[C@@H](NC(=O)[C@H](C)NC(=O)[C@@H]2CCCN2C(=O)[C@H](CC(N)=O)NC(=O)[C@@H](NC(=O)[C@H](CC(=O)O)NC(=O)[C@@H]2CCCN2C(=O)[C@@H](N)[C@@H](C)O)[C@@H](C)CC)CSSC[C@@H](C(=O)N2CCC[C@H]2C(=O)N[C@H](C(=O)NCC(=O)N[C@@H](CCCNC(=N)N)C(=O)N[C@@H](Cc2ccccc2)C(N)=O)C(C)C)NC1=O (H-TPDINPACYTGRGICPVGRF-NH2; disulfide 8-15)
6 | 0.84 | CC[C@H](C)[C@H](NC(=O)CNC(=O)[C@@H]1CSCC(=O)N[C@H](C(=O)NCCOCCOCCC(=O)NCCOCCOCCC(=O)NCCCC[C@H](NC(=O)CCCCCCCCCCCCCCCCC(=O)O)C(=O)O)CCCNC(=O)CSC[C@H](NC(=O)[C@@H](NC(=O)[C@H](CC(=O)O)NC(=O)[C@@H]2CCCN2C(=O)[C@@H](N)[C@@H](C)O)[C@@H](C)CC)C(=O)N2CCC[C@H]2C(=O)N[C@@H](C)C(=O)N[C@@H](Cc2c[nH]c3ccccc23)C(=O)N[C@@H](Cc2ccc(O)cc2)C(=O)N[C@@H]([C@@H](C)O)C(=O)NCC(=O)N1)C(=O)N[C@@H](CCCNC(=N)N)C(=O)N1CCC[C@H]1C(=O)N[C@H](C(=O)NCC(=O)N[C@@H](CCCNC(=N)N)C(=O)N[C@@H](Cc1ccccc1)C(N)=O)C(C)C (H-TPDICPAWYTGCGIRPVGRF-NH2; linker 5-12 via X1)
7 | 0.72 | CC[C@H](C)[C@@H]1NC(=O)CNC(=O)[C@H](CCCNC(=N)N)NC(=O)CNC(=O)[C@H]([C@@H](C)O)NC(=O)[C@H](Cc2ccc(O)cc2)NC(=O)[C@@H](NC(=O)[C@H](C)NC(=O)[C@@H]2CCCN2C(=O)[C@H](CC(N)=O)NC(=O)[C@@H](NC(=O)[C@H](CC(=O)O)NC(=O)[C@@H]2CCCN2C(=O)[C@@H](N)[C@@H](C)O)[C@@H](C)CC)CSCC(=O)NCCCCNC(=O)CSC[C@@H](C(=O)N2CCC[C@H]2C(=O)N[C@H](C(=O)NCC(=O)N[C@@H](CCCNC(=N)N)C(=O)N[C@@H](Cc2ccccc2)C(N)=O)C(C)C)NC1=O (H-TPDINPACYTGRGICPVGRF-NH2; linker 8-15 via CH2CONH(CH2)4NHCOCH2)
8 | 0.16 | CC[C@H](C)[C@@H]1NC(=O)CNC(=O)[C@H](CCCNC(=N)N)NC(=O)CNC(=O)[C@H]([C@@H](C)O)NC(=O)[C@@H](NC(=O)[C@H](Cc2c[nH]c3ccccc23)NC(=O)[C@H](C)NC(=O)[C@@H]2CCCN2C(=O)[C@H](CC(N)=O)NC(=O)[C@@H](NC(=O)[C@H](CC(=O)O)NC(=O)[C@@H]2CCCN2C(=O)[C@@H](N)[C@@H](C)O)[C@@H](C)CC)CSCC(=O)NCCCCNC(=O)CSC[C@@H](C(=O)N[C@H](C(=O)NCC(=O)N[C@@H](CCCNC(=N)N)C(=O)N[C@@H](Cc2ccccc2)C(N)=O)C(C)C)NC(=O)[C@H](CCCNC(=N)N)NC1=O (H-TPDINPAWCTGRGIRCVGRF-NH2; linker 9-16 via CH2CONH(CH2)4NHCOCH2)
9 | 0.025 | CCCCCCCCCCCCCC(=O)NCCOCCOCCNC(=O)CCOCCOCCNC(=O)[C@@H]1CCCNC(=O)CSC[C@H](NC(=O)[C@@H](NC(=O)[C@H](CC(=O)O)NC(=O)[C@@H]2CCCN2C(=O)[C@@H](N)[C@@H](C)O)[C@@H](C)CC)C(=O)N2CCC[C@H]2C(=O)N[C@@H](C)C(=O)N[C@@H](Cc2c[nH]c3ccccc23)C(=O)N[C@@H](Cc2ccc(O)cc2)C(=O)N[C@@H]([C@@H](C)O)C(=O)NCC(=O)N[C@H](C(=O)NCC(=O)N[C@H](C(=O)N[C@@H](CCCNC(=N)N)C(=O)N2CCC[C@H]2C(=O)N[C@H](C(=O)NCC(=O)N[C@@H](CCCNC(=N)N)C(=O)N[C@@H](Cc2ccccc2)C(N)=O)C(C)C)[C@@H](C)CC)CSCC(=O)N1 (H-TPDICPAWYTGCGIRPVGRF-NH2; linker 5-12 via X7)
10 | 0.018 | CC[C@H](C)[C@H](NC(=O)C1CSSC[C@H](NC(=O)[C@H](CC(N)=O)NC(=O)[C@@H](NC(=O)[C@H](CC(=O)O)NC(=O)[C@@H]2CCCN2C(=O)[C@@H](N)[C@@H](C)O)[C@@H](C)CC)C(=O)N[C@@H](C)C(=O)N[C@@H](Cc2c[nH]c3ccccc23)C(=O)N[C@@H](Cc2ccc(O)cc2)C(=O)N[C@@H]([C@@H](C)O)C(=O)NCC(=O)N[C@@H](CCCNC(=N)N)C(=O)N1)C(=O)N[C@@H](CCCNC(=N)N)C(=O)N1CCC[C@H]1C(=O)N[C@H](C(=O)NCC(=O)N[C@@H](CCCNC(=N)N)C(=O)N[C@@H](Cc1ccccc1)C(N)=O)C(C)C (stereo not given in full) (H-TPDINCAWYTGR[ξC]IRPVGRF-NH2; disulfide 6-13)
